Patent US12366579B2, “Sulfur-heterocycle exchange chemistry and uses thereof” (University of Virginia Patent Foundation, priority 2019, dated 2025)
“Also recorded” adds a separate entry of the source. One block for each compound: values may come before it.

How the values were obtained:
[1] = target: human prostaglandin reductase 2 (PTGR2) (Homo sapiens, UniProt Q8N8N7); assay: Chemical proteomics analysis and gel-based screen of human PTGR2 with HHS SuTEx ligands; type: binding
Excerpt: FIGS. 45A and 45B: Modification of human prostaglandin reductase 2 (PTGR2) with HHS SuTEx ligands. HHS0701 modifies the tyrosine at residue 100.
(§1) In addition, SuTEx fragment EKT231 (see FIG. 46A) modifies EDC3 at tyrosine 475.

[2] = target: T1, purified DPP3 (Homo sapiens, UniProt Q9NY33); assay: DPP3 biochemical substrate assay (Arg-Arg β-naphthylamide peptidase assay); conditions: negative control with cyclopropyl-modified AG
T1 sequence (Q9NY33 1-737): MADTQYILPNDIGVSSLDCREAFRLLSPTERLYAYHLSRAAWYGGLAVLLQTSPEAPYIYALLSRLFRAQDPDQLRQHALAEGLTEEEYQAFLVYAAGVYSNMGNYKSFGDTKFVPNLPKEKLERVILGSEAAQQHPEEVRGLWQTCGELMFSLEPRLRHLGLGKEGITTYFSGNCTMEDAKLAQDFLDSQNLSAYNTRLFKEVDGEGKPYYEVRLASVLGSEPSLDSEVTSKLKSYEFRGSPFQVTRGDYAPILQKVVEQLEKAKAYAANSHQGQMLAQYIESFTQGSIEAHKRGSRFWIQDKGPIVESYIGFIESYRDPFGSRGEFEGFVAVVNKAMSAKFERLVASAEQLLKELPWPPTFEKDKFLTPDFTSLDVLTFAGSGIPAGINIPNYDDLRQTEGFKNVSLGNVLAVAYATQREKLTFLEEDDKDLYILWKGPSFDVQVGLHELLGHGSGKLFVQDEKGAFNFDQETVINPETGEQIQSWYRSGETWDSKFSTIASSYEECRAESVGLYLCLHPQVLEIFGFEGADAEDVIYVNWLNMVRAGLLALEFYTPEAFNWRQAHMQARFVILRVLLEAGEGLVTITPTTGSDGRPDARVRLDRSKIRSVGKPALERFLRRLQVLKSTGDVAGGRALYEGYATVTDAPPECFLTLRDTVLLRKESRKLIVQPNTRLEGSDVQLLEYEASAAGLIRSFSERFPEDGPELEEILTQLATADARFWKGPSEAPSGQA
Experimental: DPP3 Biochemical Substrate Assay
Substrate assays were performed using purified DPP3 protein diluted to 5 ng/μL in assay buffer. DPP3 samples (10 μl) were diluted to 85 μl with assay buffer and transferred to a black 96-well plate. Samples were treated with a 50× stock of SuTEx-fragment at indication concentration for 30 min at 37° C. A stock solution of DPP3 substrate (Arg-Arg β-naphthylamide trihydrochloride, 0.5 mM: Sigma-Aldrich. St, Louis, Missouri, United States of America) was diluted to 100 μM in assay buffer. Substrate solution (5 μl) was added to each sample. Samples were mixed briefly by shaking and reaction monitored in kinetic mode by measuring fluorescence at 450 nm for 10 min on a BMG Labtech CLARIOstar plate reader (BMG Labtech, Cary, North Carolina, United States of America).

[3] = tested on: DM93 soluble proteomes; assay: Proteome-wide competitive chemical proteomics of SuTEx fragments vs HHS-482; type: binding, human; conditions: fragment 50 μM, 30 min, 37° C.
Experimental: Heavy and light proteomes (432 μl of each) were diluted to 2.3 mg ml^−1 in PBS and sample aliquots (432 μl) were treated with SuTEx fragment at the indicated concentrations (5 μl, 100× stock in DMSO), mixed gently and incubated for 30 min at 37° C. Samples were then treated with HHS-482 (5 μL, 5 mM stock in DMSO) for 30 min at 37° C. Probe-modified proteomes were conjugated to desthiobiotin-PEG3-azide followed by enrichment of probe-modified peptides for nano-electrospray ionization-LC-MS/MS analyses as previously described^57.
The chemical proteomic method for functional tyrosine profiling^72 was tailored to investigate AG/LG effects on SuTEx fragment reactivity in complex proteomes. In brief, isotopically light and heavy soluble proteomes from DM93 melanoma cells cultured by stable isotopic labeling by amino acids in cell culture (SILAC^80) media were used for quantitative liquid chromatography-mass spectrometry (LC-MS) studies. Light and heavy DM93 proteomes were treated with dimethyl sulfoxide (DMSO) vehicle or SuTEx fragment (50 μM, 30 min, 37° C.), respectively, followed by labeling with the tyrosine-reactive probe HHS-482 described hereinabove (50 μM, 30 min, 37° C.) and copper-catalyzed azide-alkyne cycloaddition (CuAAC) conjugation of a desthiobiotin-azide enrichment tag. Proteomes were digested with trypsin protease, HHS-482-modified peptides enriched by avidin chromatography and analyzed by high-resolution LC-MS/MS and bioinformatics as described hereinabove.
To evaluate substituent effects on proteome activity, reactivity profiles of each respective SuTEx fragment were compared across >1500 total distinct HHS-482-modified tyrosine sites from >650 detected proteins. Fragments were screened across independent biological replicates (n=2-3) and high-quality tyrosine site annotations were identified by detection in at least a single biological replicate from each fragment dataset, probe-specific enrichment (HHS-482 probe/DMSO SILAC ratio (SR)>5), and quality control confidence criteria of ≥300 Byonic score^31, […] protein false discovery rate (FDR), and ≤5 ppm mass accuracy in order to minimize the potential for false positives^72. SILAC ratios (SR) from competitive studies (Light-DMSO/Heavy-fragment) were used to identify fragment-competed tyrosine residues as sites showing >75% reduction in enrichment by HHS-482 compared with DMSO vehicle control (i.e. liganded tyrosines, SR>4). In total, 305 liganded tyrosines on 213 distinct proteins were identified, corresponding to ˜30% and ˜44% of total quantified tyrosines and proteins, respectively. […]

[4] = target: T2, recombinant GSTP1 lysates (Homo sapiens, UniProt P09211); assay: GSTP1 biochemical substrate assay (GSH conjugation to BDNB); conditions: negative control probes; highest concentration tested 100 μM
T2 construct: FLAG (C); host or cells: HEK293T, transient transfection; soluble proteome used unpurified
Experimental: GSTP1 Biochemical Substrate Assay
Recombinant GSTP1-HEK293T soluble cell proteomes were diluted to 1 mg ml^−1 in assay buffer (100 mM NaH2PO4, pH 7.0). Samples were treated with inhibitor at indicated concentrations for 30 min at 37° C. GSH stock solution (250 mM in water) was diluted to 4 mM in assay buffer and 25 μl of diluted GSH solution was added to each sample. A substrate stock solution of 75 mM 1-bromo-2,4-dinitrobenzene […] in ethanol was diluted to 2 mM in assay buffer. Samples (25 μl) were aliquoted into a 96-well plate and spun briefly via centrifuge. Next, 50 μl of 2 mM BDNB was added to each well and the reaction was monitored in kinetic mode by measuring absorbance at 340 nm for 10 min on a BMG Labtech CLARIOstar plate reader (BMG Labtech, Cary, North Carolina, United States of America).

[5] = target: T3, human fumarylacetoacetase (FAAA) (Homo sapiens, UniProt P16930); assay: Chemical proteomics analysis and gel-based screen of human FAAA with HHS SuTEx ligands; type: binding
T3 construct: made in house; host or cells: HEK293T, soluble proteome
Experimental: FIGS. 44A-44C. Modification of human fumarylacetoacetase (FAAA) with HHS SuTEx ligands. FIG. 44A is a series of graphs showing the chemical proteomics analysis of human FAAA using an HHS SuTEx ligand, HHS0401 (25 μM) shown in FIG. 43. HHS0401 modifies the tyrosine at residue 244. FIG. 44B is an image of a gel-based chemical proteomic screen for human FAAA fragment ligands. Recombinant hFAAA-HEK293T soluble proteomes pretreated with indicated fragment (25 μM, 120 min) followed by labeling with HHS-475 (100 μM, 120 min).
as §1

[6] = tested on: DM93 and HEK293T cells; assay: Proteome-wide profiling of sulfonyl imidazole analogs in live cells; type: cell-based, human; conditions: 100 μM, 2 hours, 37° C.
Experimental: A chemical proteomic treatment and analysis protocol was established to evaluate the structural-induced effect on the proteomic coverage of the sulfonyl imidazole analogs. […] Duke Melanoma 93 (DM93) and human embryonic kidney 293T (HEK293T) cells were treated with the probes (100 μM, 2 hours, 37° C.). The cells were harvested, washed and fractionated to expose the proteome. The cytosolic proteome subsequently underwent copper-catalyzed azide-alkyne cycloaddition (CuAAC) with a dethiobiotin PEG-3 azide tag. The tagged proteomes were digested with trypsin lys-C protease mixture, enriched by avidin affinity chromatography, eluted and analyzed by chromatography-tandem high-resolution mass spectrometry (LC-MS). The bioinformatic match of probe modified peptides was filtered with data confidence control criteria of ≥300 Byonic score, ≥3 log probability and ≤5 ppm mass accuracy (amino acid residue modifications of Y, K, N, Q, and W were processed at this point).

[7] = tested on: A549 cells; assay: Chemical phosphoproteomics of pervanadate-activated cells by SuTEx probe labeling (SILAC); type: cell-based, human; conditions: pervanadate 100 μM, 30 min, HHS-475 100 μM
Experimental: Pervanadate (100 mM) was prepared as previously described^41 by mixing 100 μL of sodium orthovanadate (100 mM Na3VO4, New England BioLabs #P0758S, Ipswich, Massachusetts, United States of America) with 1 μL of hydrogen peroxide (H2O2, 30% v/v in water) on ice. […] After pervanadate treatment, cells were washed twice with cold PBS followed by harvest. Cell pellets were resuspended in PBS supplemented with protease and phosphatase inhibitor mini tablets (Thermo Scientific #A32959; ThermoFisher Scientific, Waltham, Massachusetts, United States of America) and then lysed by sonication (3×1 sec pulse, 20% amplitude). For CTNND1 western blot studies, cell pellets were lysed in NP40 Cell Lysis Buffer (#FNN0021, Invitrogen, Carlsbad, California, United States of America) supplemented with protease/phosphatase inhibitor tablets. Cell lysates were separated via centrifugation at 100,000×g for 45 min at 4° C. for western blot or chemical proteomic studies. Note: pervanadate treatments are performed on live cells but SuTEx probe labeling occurs in proteomes in vitro.
Proteomes from cells treated with pervanadate activation conditions (100 μM, 30 min) were labeled with HHS-475 or HHS-482 (100 μM, 30 min) followed by CuAAC with desthiobiotin and quantitative LC-MS to evaluate how phosphorylation status affected SuTEx probe labeling. […] In total ˜2,200 probe-modified tyrosine sites were detected across ˜1,000 proteins using both HHS-475 and HHS-482 that were further separated into pervanadate-sensitive (PerS, SR≥2) and -insensitive groups (PerI, SR<2). The probe-modified tyrosines found in the PerS group appeared to be enriched for annotated phosphotyrosine sites (HTP≥10 in PhosphoSitePlus, see FIGS. 6C and 18) and represented only a small fraction of all unique HHS-475- and HHS-482-modified tyrosines detected by chemical proteomics (˜3%, 67 sites). […]

Chain of human prostaglandin reductase 2 (PTGR2) (Q8N8N7 whole entry): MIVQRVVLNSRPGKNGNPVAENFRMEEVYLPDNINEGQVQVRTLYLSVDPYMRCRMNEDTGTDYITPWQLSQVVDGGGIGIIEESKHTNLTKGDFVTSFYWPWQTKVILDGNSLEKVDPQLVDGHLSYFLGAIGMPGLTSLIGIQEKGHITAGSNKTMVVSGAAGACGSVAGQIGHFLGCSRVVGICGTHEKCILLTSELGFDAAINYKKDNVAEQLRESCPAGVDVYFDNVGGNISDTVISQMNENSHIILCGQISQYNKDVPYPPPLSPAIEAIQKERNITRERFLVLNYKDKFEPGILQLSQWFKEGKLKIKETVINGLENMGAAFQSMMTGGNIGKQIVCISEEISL
T3 sequence (P16930 whole entry): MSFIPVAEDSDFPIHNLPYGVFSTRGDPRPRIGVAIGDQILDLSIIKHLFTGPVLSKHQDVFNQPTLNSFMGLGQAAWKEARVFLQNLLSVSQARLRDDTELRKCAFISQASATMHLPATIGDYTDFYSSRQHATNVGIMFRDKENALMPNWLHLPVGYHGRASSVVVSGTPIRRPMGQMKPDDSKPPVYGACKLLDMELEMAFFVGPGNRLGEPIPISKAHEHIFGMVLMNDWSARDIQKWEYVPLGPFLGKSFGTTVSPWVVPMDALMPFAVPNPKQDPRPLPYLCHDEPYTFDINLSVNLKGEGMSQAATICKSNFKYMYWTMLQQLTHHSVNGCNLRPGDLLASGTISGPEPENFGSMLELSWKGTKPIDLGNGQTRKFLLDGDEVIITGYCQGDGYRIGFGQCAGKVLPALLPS
T2 sequence (P09211 whole entry): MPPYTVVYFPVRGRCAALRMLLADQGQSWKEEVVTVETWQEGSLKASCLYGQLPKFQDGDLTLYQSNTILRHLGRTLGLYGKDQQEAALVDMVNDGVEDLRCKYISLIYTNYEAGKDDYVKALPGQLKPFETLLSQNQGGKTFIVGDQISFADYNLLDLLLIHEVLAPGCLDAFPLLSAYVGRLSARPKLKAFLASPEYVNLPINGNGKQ

inhibition of PTGR2, gel-based chemical proteomic screen ([1]; FIG. 45B): dose-dependent inhibition | tyrosine residue of PTGR2 modified ([1]; ligand 25 μM): 100
Compound: O=C(c1ccc(S(=O)(=O)n2cnnc2)cc1)N1CCC(c2ccccc2)CC1 [HHS0701]

activity against DPP3 in substrate assay [2]: inactive
Compound: COc1ccc(-c2ncn(S(=O)(=O)C3CC3)n2)cc1 [JWB131, 1-(Cyclopropylsulfonyl)-3-(4-methoxyphenyl)-1H-1,2,4-triazole]
reactivity against the proteome [3]: largely unreactive

Compound: O=S(=O)(C1CC1)n1cnc(-c2ccncc2)n1 [JWB191, 4-(1-(Cyclopropylsulfonyl)-1H-1,2,4-triazol-3-yl)pyridine]
inhibitory activity against GSTP1 [4]: lack of activity; also recorded: did not show inhibitory activity

inhibition of FAAA, gel-based chemical proteomic analysis ([5]; FIG. 44C): dose-dependent inhibition | tyrosine residue of FAAA modified ([5]; ligand 25 μM): 244
Compound: O=C(NCc1ccccc1)c1ccc(S(=O)(=O)n2cnnc2)cc1 [HHS0401]

Compound: C#CCNC(=O)c1ccc(S(=O)(=O)n2cnc(C(F)(F)F)c2)cc1 [KY-Im-TFM, N-(prop-2-yn-1-yl)-4-((4-(trifluoromethyl)-1H-imidazol-1-yl)sulfonyl)benzamide]
Y/K specificity [6]: 3.58 | overall reactivity towards tyrosine and lysine residues (number of sites) [6]: 338

Compound: C#CCNC(=O)c1ccc(S(=O)(=O)n2ccnc2)cc1 [HHS-Im-01, 4-((1H-imidazol-1-yl)sulfonyl)-N-(prop-2-yn-1-yl)benzamide]
Y/K specificity [6]: 0.77 | overall reactivity towards tyrosine and lysine residues (number of sites) [6]: 329

Compound: pervanadate
SILAC ratio (SR, light PBS/heavy pervanadate) of SuTEx probe labeling at CTNND1 Y228 [7]: 3.3 | SILAC ratio (SR, light PBS/heavy pervanadate) of SuTEx probe labeling at PKM Y105 [7]: 1.1 | SILAC ratio (SR, light PBS/heavy pervanadate) of SuTEx probe labeling at STAT3 Y705 [7]: 2.3
